Measured values: patent publication US7491849B2, “Oligoamine compounds and derivatives thereof for cancer therapy” (priority 2001, dated 2009)

Assays:
Type in all cases: cell-based
DuPro = assay: MTT assay, tumor cell growth, DuPro; conditions: 6 days incubation, read-out: ID50 (μM) values for Human Tumor Cell Lines, DuPro
Protocol: (§1) Effect of Saturated Oligoamines on Human Prostate Tumor Cell Growth by the MTT assay. Saturated oligoamines inhibited prostate cancer cell growth in vitro. DU-145 cells were most sensitive and PC-3 cells were less sensitive to the effects of oligoamines. In general, ID50 values of less than 0.5 μM were obtained (Table 2). Even though the PC-3 cells were relatively more resistant to the oligoamines, at a 5 μM concentration the oligoamines reduced the cell number to less than 1% of the control on day 6 of incubation. Tissue cultures and the MTT assay were performed as follows.
(§2) Tissue Culture. Cells were seeded into 75 cm^2 culture flasks with 15 ml of Eagle's minimal essential medium supplemented with 10% fetal calf serum and nonessential amino acids. The flasks were incubated in a humidified 95% air/5% CO2 atmosphere. The cells were grown for at least 24 h to ensure that they are in the log phase of growth and then they were treated with the oligoamines. Cells were harvested by treatment for 5 min with STV (saline A, 0.05% trypsin, 0.02% EDTA) at 37° C. The flasks were rapped on the lab bench, pipetted several times and aliquots of cell suspension were withdrawn and counted using a Coulter particle counter that has been standardized for counting each cell line using a hemacytometer.
(§3) MTT Assay: Trypsinized cell suspensions were diluted to seed 80 μl suspensions containing 500 cells in each well of a 96 well Corning microtiter plate and incubated overnight at 37° C. in a humidified incubator in 5% CO2. 20 μl of appropriately diluted stock solution of each drug were added to the middle 8 columns of cell suspension in the microtiter plates. Each drug concentration was run in quadruplicate. Outer columns of the plates were used for buffer controls. Cells were incubated with the drug for 6 days at 37° C. in 5% CO2/H2O atmosphere. 25 μl of 5 mg/ml solution of 3-(4,5-dimethylthiazol-2-yl)-2,5-diphenyl tetrazolium bromide (MTT) were added to each well and incubated for 4 hours at 37° C. in 5% CO2/H2O incubator. Cells were lysed by incubating overnight with 100 μl lysis buffer (500 ml of the lysis buffer contains: 100 g lauryl sulfate (SDS), 250 ml of N,N-dimethylformamide, and 2 ml of glacial acetic acid, made up to volume with water; pH 4.8).
(§4) The color was monitored at room temperature at 570 nm in a E-max Precision Microplate Reader (Molecular Devices Corporation, Sunnyvale, Calif.) and data was analyzed using cell survival software supplied by Molecular Devices Corporation.

PC-3 = assay: MTT assay, tumor cell growth, PC-3; conditions: 6 days incubation, read-out: ID50 (μM) values for Human Tumor Cell Lines, PC-3
Protocol: as §1, §2, §3, §4

PC-3 Cells = assay: Cellular polyamine and oligoamine levels, PC-3 cells (HPLC)
Protocol: Cellular Uptake of Oligoamines. There was considerable uptake of oligoamines by the cancer cell lines; see Table 3A (DuPro cells) and Table 3B (PC-3 cells). […] While not wishing to be limited by any particular theory of operation, the cytotoxicity is likely related to their strong aggregation effect on DNA.
Polyamine Analysis. An appropriate number of cells were taken from harvested samples and centrifuged at 1000 rpm at 4° C. for 5 min. The cells were washed twice with chilled Dulbecco's isotonic phosphate buffer (pH 7.4) by centrifugation at 1000 rpm at 4° C. and resuspended in the same buffer. After the final centrifugation, the supernatant was decanted, and […] of 8% sulfosalycilic acid was added to the cell pellet. The cells were sonicated, and the mixture was kept at 4° C. for at least 1 h. After centrifugation at 8000 g for 5 min, the supernatant was removed for analysis. An appropriate volume (50-100 μl) was fluorescence-labeled by derivatizing with dansyl chloride. Labeled polyamines were loaded onto a C-18 high-performance liquid chromatography column and separated by gradient elution with acetonitrile/water at 50° C. Peaks were detected and quantitated using Shimadzu HPLC fluorescence monitor coupled with a Spectra-Physics peak integrator. Because polyamine levels vary with environmental conditions, control cultures were sampled for each experiment.

[1] = PC-3, Day 4 of Treatment, analog conc. 1 μM
[2] = PC-3, Day 4 of Treatment, analog conc. 5 μM
[3] = PC-3, Day 6 of Treatment, analog conc. 1 μM

SMILES: CCNCCCCNCCCCNCCCCNCCCCNCCCCNCCCCNCCCCNCCCCNCCCCNCC.Cl.Cl.Cl.Cl.Cl.Cl.Cl.Cl.Cl.Cl [SL-11159]
- IC50 (DuPro): 0.3 µM
- IC50 (PC-3): 0.6 µM
- Polyamine levels, Analog (cellular oligoamine level) (PC-3 Cells; [1]): 0.513 nmoles/10^6 cells
- Polyamine levels, Put (PC-3 Cells; [1]): 0.525 nmoles/10^6 cells
- Polyamine levels, Spd (PC-3 Cells; [1]): 0.531 nmoles/10^6 cells
- Polyamine levels, Spm (PC-3 Cells; [1]): 0.300 nmoles/10^6 cells
- Polyamine levels, Analog (cellular oligoamine level) (PC-3 Cells; [2]): 0.388 nmoles/10^6 cells
- Polyamine levels, Put (PC-3 Cells; [2]): 0.670 nmoles/10^6 cells
- Polyamine levels, Spm (PC-3 Cells; [2]): 0.240 nmoles/10^6 cells
- Polyamine levels, Analog (cellular oligoamine level) (PC-3 Cells; [3]): 1.026 nmoles/10^6 cells
- Polyamine levels, Put (PC-3 Cells; [3]): 0.640 nmoles/10^6 cells

SMILES: CCNCCCCNCCCCNCCCCNCCCCNCCCCNCCCCNCCCCNCCCCNCCCCNCCCCNCCCCNCC.Cl.Cl.Cl.Cl.Cl.Cl.Cl.Cl.Cl.Cl.Cl.Cl [SL-11226]
- IC50 (DuPro): 0.11 µM
- IC50 (PC-3): 0.14 µM
- Polyamine levels, Analog (cellular oligoamine level) (PC-3 Cells; [1]): 0.021 nmoles/10^6 cells
- Polyamine levels, Put (PC-3 Cells; [1]): 0.573 nmoles/10^6 cells
- Polyamine levels, Analog (cellular oligoamine level) (PC-3 Cells; [2]): 0.026 nmoles/10^6 cells
- Polyamine levels, Put (PC-3 Cells; [2]): 0.985 nmoles/10^6 cells
- Polyamine levels, Spd (PC-3 Cells; [2]): 0.071 nmoles/10^6 cells
